pEC50: −log10 of the molar value.
Columns and labels:
TLR8 = target: T1, TLR8 (Homo sapiens, UniProt Q9NR97); test: TLR8 human PBMC cell-based assay (antagonist, Compound A stimulated cytokine release); conditions: human PBMCs; TLR8 agonist Compound A 800 nM, 6 hours; cytokines (TNFa and IL 12p40) in supernatant; read-out: TLR-8 EC50
T1 construct: Human peripheral blood mononuclear cells (PBMCs) consist of lymphocytes, monocytes and dendritic cells that express TLR7, TLR8 and TLR9; endogenous in cells; host or cells: cryopreserved human PBMCs from healthy donors
T1 sequence (Q9NR97 27-1041): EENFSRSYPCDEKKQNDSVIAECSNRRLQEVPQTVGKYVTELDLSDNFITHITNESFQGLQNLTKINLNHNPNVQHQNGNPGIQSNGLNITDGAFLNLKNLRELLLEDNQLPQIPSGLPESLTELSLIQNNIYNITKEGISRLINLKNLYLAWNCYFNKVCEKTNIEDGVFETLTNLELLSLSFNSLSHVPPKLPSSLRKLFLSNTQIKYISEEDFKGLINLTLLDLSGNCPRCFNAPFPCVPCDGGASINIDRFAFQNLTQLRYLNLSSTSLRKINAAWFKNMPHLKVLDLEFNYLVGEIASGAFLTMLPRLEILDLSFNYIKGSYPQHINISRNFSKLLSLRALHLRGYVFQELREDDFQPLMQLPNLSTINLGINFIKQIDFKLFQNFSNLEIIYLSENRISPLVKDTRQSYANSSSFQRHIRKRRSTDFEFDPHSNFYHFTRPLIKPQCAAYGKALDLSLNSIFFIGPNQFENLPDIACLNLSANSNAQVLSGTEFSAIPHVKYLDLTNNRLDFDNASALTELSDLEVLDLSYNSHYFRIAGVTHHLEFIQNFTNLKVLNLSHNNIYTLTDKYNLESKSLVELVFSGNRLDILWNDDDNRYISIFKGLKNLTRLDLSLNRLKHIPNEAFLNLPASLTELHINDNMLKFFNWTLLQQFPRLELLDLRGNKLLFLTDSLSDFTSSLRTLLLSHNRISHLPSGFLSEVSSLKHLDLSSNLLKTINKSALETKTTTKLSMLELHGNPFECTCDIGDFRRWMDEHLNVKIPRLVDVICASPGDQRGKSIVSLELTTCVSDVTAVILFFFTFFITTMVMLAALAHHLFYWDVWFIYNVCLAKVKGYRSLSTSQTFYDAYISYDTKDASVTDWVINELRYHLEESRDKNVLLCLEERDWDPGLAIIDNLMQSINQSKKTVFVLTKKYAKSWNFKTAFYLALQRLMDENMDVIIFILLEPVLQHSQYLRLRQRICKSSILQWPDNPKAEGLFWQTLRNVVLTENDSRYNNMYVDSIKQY
From the text: (§1) Human peripheral blood mononuclear cells (PBMCs) consist of lymphocytes, monocytes and dendritic cells that express TLR7, TLR8 and TLR9. These cells respond to TLR7, TLR8 and TLR9 ligand stimulation and produce cytokines and chemokines in vitro and in vivo. Human PBMCs are therefore suitable to be used in a cell-based assay to assess the in vitro potency of a TLR 7, 8, and/or 9 antagonist. The result is expected to be more translatable to the pharmacodynamics response in vivo than cell line-based assays.
Cryopreserved human PBMCs from healthy donors were thawed and resuspended in RPMI-1640 media with L-glutamine (Corning) supplemented with 10% Fetal Bovine Serum (Hyclone) and 1X Penicillin-Streptomycin (Corning). After counting, the cell density was adjusted to 2 million cells/ml and incubated for 1 hour at 37° C., 5% CO2 for recovery. Following the recovery, the cells were plated by adding 50 μl per well (100,000 cells) to 384-well cell culture plates (Greiner) containing 250 nl of test antagonists in 100% DMSO per well, in a 10 points dose response in quadruplicates. PBMCs were incubated in the presence of antagonists for one hour at 37° C., 5% CO2 before being stimulated with TLR8 agonist. Compound A (Gilead Sciences, U.S. Pat. No. 10,285,990) was used as the TLR8 agonist at a final concentration of 800 nM. PBMCs were incubated in the presence of antagonist and the TLR8 agonist for an additional 6 hours at 37° C., 5% CO2. At the end of the incubation, the cell culture plates were centrifuged at 500 g for 5 min, and the cell culture supernatant was collected. The level of cytokines (TNFa and IL 12p40) in the supernatant was measured by electrochemiluminescence immunoassays (Mesoscale Discovery) following manufacturer's recommended protocols. The level of cytokine measured was plotted against the antagonist concentration and fitted to a sigmoidal function to determine the EC50, which are shown below in Table 11.

TLR7 = target: T2, TLR7 (Homo sapiens, UniProt Q9NYK1); test: TLR7 human PBMC cell-based assay (antagonist, GS-986 stimulated cytokine release); conditions: human PBMCs; TLR7 agonist GS-986 400 nM, 6 hours; cytokines (IL-6 and IFNα) in supernatant; read-out: TLR-7 EC50
T2 construct: Human peripheral blood mononuclear cells (PBMCs) consist of lymphocytes, monocytes and dendritic cells that express TLR7, TLR8 and TLR9; endogenous in cells; host or cells: cryopreserved human PBMCs from healthy donors
T2 sequence (Q9NYK1 27-1049): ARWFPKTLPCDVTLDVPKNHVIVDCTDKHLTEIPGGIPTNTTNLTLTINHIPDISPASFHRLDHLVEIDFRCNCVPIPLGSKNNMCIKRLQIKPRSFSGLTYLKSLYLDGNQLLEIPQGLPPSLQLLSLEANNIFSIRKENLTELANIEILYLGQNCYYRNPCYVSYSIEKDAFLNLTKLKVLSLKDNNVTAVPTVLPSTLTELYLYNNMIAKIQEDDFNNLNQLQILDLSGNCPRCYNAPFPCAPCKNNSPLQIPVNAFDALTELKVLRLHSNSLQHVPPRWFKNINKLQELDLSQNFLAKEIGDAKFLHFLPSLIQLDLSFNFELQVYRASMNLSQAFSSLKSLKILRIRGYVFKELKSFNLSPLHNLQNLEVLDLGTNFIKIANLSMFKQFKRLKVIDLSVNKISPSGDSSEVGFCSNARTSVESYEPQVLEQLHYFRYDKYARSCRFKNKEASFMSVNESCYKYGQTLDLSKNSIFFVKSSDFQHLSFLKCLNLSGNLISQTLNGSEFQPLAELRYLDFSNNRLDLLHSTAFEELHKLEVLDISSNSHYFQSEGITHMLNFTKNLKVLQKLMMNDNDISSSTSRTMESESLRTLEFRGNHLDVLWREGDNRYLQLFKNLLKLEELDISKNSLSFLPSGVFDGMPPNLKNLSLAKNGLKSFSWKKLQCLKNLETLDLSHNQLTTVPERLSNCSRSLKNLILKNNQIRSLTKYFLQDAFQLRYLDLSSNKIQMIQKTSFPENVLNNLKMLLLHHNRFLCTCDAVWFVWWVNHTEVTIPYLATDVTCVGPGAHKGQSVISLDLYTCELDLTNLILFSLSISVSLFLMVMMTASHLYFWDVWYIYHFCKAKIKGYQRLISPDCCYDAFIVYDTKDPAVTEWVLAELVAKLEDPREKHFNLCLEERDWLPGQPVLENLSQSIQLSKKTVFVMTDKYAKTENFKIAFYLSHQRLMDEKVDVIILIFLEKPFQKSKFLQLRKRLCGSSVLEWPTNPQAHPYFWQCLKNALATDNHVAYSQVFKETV
From the text: as §1
Cryopreserved human PBMCs from healthy donors were thawed and resuspended in RPMI-1640 media with L-glutamine (Corning) supplemented with 10% Fetal Bovine Serum (Hyclone) and 1× Penicillin-Streptomycin (Corning). After counting, the cell density was adjusted to 2 million cells/ml and incubated for 1 hour at 37° C., 5% CO2 for recovery. Following the recovery, the cells were plated by adding 50 μl per well (100,000 cells) to 384-well cell culture plates (Greiner) containing 250 nl of test antagonists in 100% DMSO per well, in a 10 points dose response in quadruplicates. PBMCs were incubated in the presence of test antagonists for one hour at 37° C., 5% CO2 before being stimulated with a TLR7 or TLR9agonist. GS-986 (Gilead Sciences) was used as the TLR7 agonist at a final concentration of 400 nM. ODN-2216 (InvivoGen) was used as the TLR9 agonist at a final concentration of 3 μM. PBMCs were incubated in the presence of the test antagonist and the TLR7 (or TLR9) agonist for an additional 6 hours at 37° C., 5% CO2. At the end of the incubation, the cell culture plates were centrifuged at 500 g for 5 min, and the cell culture supernatant was collected. The level of cytokines (IL-6 and IFNα) in the supernatant was measured by electrochemiluminescence immunoassays (Mesoscale Discovery) following manufacturer's recommended protocols. The level of cytokine measured was plotted against the test antagonist concentration and fitted to a sigmoidal function to determine the EC50, which are shown below in Table 11.

| pEC50 (TLR8) | pEC50 (TLR7) | SMILES |
| --- | --- | --- |
| 8.06 | 10.00 | Cc1cc(-c2[nH]c3cc(C4CC5CCC(C4)N5)sc3c2C(C)C)cn2ncnc12 (centres unmarked) [Example 156] |
| 7.74 | 8.85 | Cc1cc(-c2[nH]c3cc(C(=O)N4CCCC5CNCC54)sc3c2C(C)C)cn2ncnc12 (centres unmarked) [Example 109] |
| 7.65 | 8.02 | Cc1cc(-c2[nH]c3cc(C(=O)N(C)CCN(C)C4CC4)sc3c2C(C)C)cn2ncnc12 [Example 100] |
| 7.77 | 9.02 | Cc1cc(-c2[nH]c3cc(C4C5CCC4CN(CC(N)=O)C5)sc3c2C(C)C)cn2ncnc12 (centres unmarked) [Example 309, 2-(8-(6-isopropyl-5-(8-methyl-[1,2,4]triazolo[1,5-a]pyridin-6-yl)-4H-thieno[3,2-b]pyrrol-2-yl)-3-azabicyclo[3.2.1]octan-3-yl)acetamide] |
| 8.32 | 8.10 | Cc1cc(-c2[nH]c3cc(-c4cnc5c(c4)CN(CC(N)=O)CC5)sc3c2C(C)C)cn2ncnc12 [Example 173] |
| 7.80 | 8.60 | Cc1cc(-c2[nH]c3cc(C(=O)N4CC5(CCNCC5)C4)sc3c2C(C)C)cn2ncnc12 [Example 126] |
| 7.75 | 8.40 | Cc1cc(-c2[nH]c3cc(C4CCN(CC(N)=O)CC4(C)C)sc3c2C(C)C)cn2ncnc12 (centres unmarked) [Example 298] |
| 7.60 | 8.96 | Cc1cc(-c2[nH]c3cc(C(=O)N(C4CCC4)C4CCNCC4)sc3c2C(C)C)cn2ncnc12 [Example 84] |
| 7.03 | 7.05 | Cc1cc(-c2[nH]c3cc(C(=O)N(C)C4CCN(CC(F)F)CC4)sc3c2C(C)C)cn2ncnc12 [Example 134] |
| 8.55 | 8.82 | Cc1cc(-c2[nH]c3cc(C4CCN(CC(N)=O)CC4)sc3c2C(C)C)cn2ncnc12 [Example 164, 2-[4-[6-isopropyl-5-(8-methyl-[1,2,4]triazolo[1,5-a]pyridin-6-yl)-4H-thieno[3,2-b]pyrrol-2-yl]-1-piperidyl]acetamide] |
| 8.22 | 9.52 | Cc1cc(-c2[nH]c3cc(-c4cn(C5CCNCC5)nn4)sc3c2C(C)C)cn2ncnc12 [Example 263, 6-isopropyl-5-(8-methyl-[1,2,4]triazolo[1,5-a]pyridin-6-yl)-2-(1-(piperidin-4-yl)-1H-1,2,3-triazol-4-yl)-4H-thieno[3,2-b]pyrrole] |

Further lines, the compound ahead of its results:

| SMILES | pEC50 (TLR8) | pEC50 (TLR7) |
| --- | --- | --- |
| Cc1cc(-c2[nH]c3cc(C(=O)N(C)[C@H]4CNC[C@H]4F)sc3c2C(C)C)cn2ncnc12 [Example 61] | 7.76 | 8.10 |
| Cc1cc(-c2[nH]c3cc(-c4ccc(C5CCNCC5)cc4)sc3c2C(C)C)cn2ncnc12 [Example 221] | 8.48 | 9.10 |
| Cc1cc(-c2[nH]c3cc(C(=O)N4CCCNCC4)sc3c2C(C)C)cc(C)n1 [Example 13] | 7.57 | 7.34 |
| Cc1cc(-c2[nH]c3cc(-c4nc(N5CCNCC5)no4)sc3c2C(C)C)cc(C)n1 [Example 54, 5-[5-(2,6-dimethyl-4-pyridyl)-6-isopropyl-4H-thieno[3,2-b]pyrrol-2-yl]-3-piperazin-1-yl-1,2,4-oxadiazole] | 8.15 | 8.43 |
| Cc1cc(-c2[nH]c3cc(-c4nc5ccccc5[nH]4)sc3c2C(C)C)cn2ncnc12 [Example 235, 2-(1H-benzo[d]imidazol-2-yl)-6-isopropyl-5-(8-methyl-[1,2,4]triazolo[1,5-a]pyridin-6-yl)-4H-thieno[3,2-b]pyrrole] | 6.94 | 6.96 |
| Cc1cc(-c2[nH]c3cc(C(=O)N4C5CCC4CNC5)sc3c2C(C)C)cc(C)n1 [Example 17] | 7.49 | 7.30 |
| Cc1nn(C2CCNCC2)cc1-c1cc2[nH]c(-c3cc(C)c4ncnn4c3)c(C(C)C)c2s1 [Example 220] | 7.95 | 8.92 |
| Cc1cc(-c2[nH]c3cc(-c4ccc5nc(C6[C@H]7CC[C@H](C7)N6CC(N)=O)[nH]c5c4)sc3c2C(C)C)cn2ncnc12 (some centres unmarked) [Example 170] | 7.98 | 8.92 |
| Cc1cc(-c2[nH]c3cc(C(=O)N4CCNCC4)sc3c2C(C)C)cn2nnnc12 [Example 65] | 8.27 | 8.74 |
| Cc1cc(-c2[nH]c3cc(C(=O)N4CCNCC4c4ccc(C(F)(F)F)cc4)sc3c2C(C)C)cn2ncnc12 (centres unmarked) [Example 117] | 7.32 | 6.68 |
| Cc1cc(-c2[nH]c3cc(C(=O)N4CCC5CC5(N)C4)sc3c2C(C)C)cc(C)n1 (centres unmarked) [Example 31] | 7.17 | 7.39 |

— US20240217990A1 (Gilead Sciences, Inc., priority 2021, published 2024)
